The values below come from US8796317B2, “Use of 7-nitro-2,1,3-benzoxadiazole derivatives for anticancer therapy” (Universita Degli Studi di Roma “Tor Vergata”, priority 2003, dated 2014).

“And” between values parts separate entries of the source, which are not always exact repeats. Equal entries are not always repeated.

The target in one data set is T1, GST A1-1 (Homo sapiens, UniProt P08263).
T1 construct: made in house; host or cells: Escherichia coli
T1 sequence (P08263 1-222): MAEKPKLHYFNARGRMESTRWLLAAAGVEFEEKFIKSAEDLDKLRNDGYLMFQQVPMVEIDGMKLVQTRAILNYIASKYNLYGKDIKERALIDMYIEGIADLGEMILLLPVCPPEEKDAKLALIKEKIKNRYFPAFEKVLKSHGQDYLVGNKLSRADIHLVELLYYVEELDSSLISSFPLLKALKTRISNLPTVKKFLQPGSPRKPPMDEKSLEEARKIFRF
Put plainly: Inhibition of GST activity (CDNB/GSH spectrophotometric assay). The class given is biochemical. The conditions noted are these: 25° C., pH 6.5, 1 mM glutathione, 1 mM CDNB. As to the method:
(§1) These compounds were tested as inhibitors of the activity of the isoenzymes GSTP1-1, GSTA1-1 and GSTM2-2 belonging to the most representative GST classes: the Pi, Mu and Alpha classes.
(§2) GSTA1-1, M2-2 and P1-1, expressed in Escherichia coli, were purified by using a chromatographic passage on an affinity resin capable of selectively retaining the GST (J. Biol. Chem. 270, (1995), 1249-1253).
(§3) GST activity was tested at 25° C. with a 0.1 M potassium phosphate buffer, at pH 6.5, in the presence of the substrates, i.e. of the glutathione (Sigma-Aldrich, Fine Chemicals) in a concentration of 1 mM, and of 1-chloro-2,4-dinitrobenzene (CDNB) (Sigma-Aldrich, Fine Chemicals) 1 mM (Methods Enzymol. 77, 1981, 398-405).
(§4) Enzymatic activity was assessed spectrophotometrically at 340 nm, a wavelength at which it absorbs the reaction product S-(2,4-dinitrobenzene)glutathione (GS-DNB) (6=9.6 mM^−1 cm^−1).

The target of a further data set is T2, GST M2-2 (Homo sapiens, UniProt P28161).
T2 construct: made in house; host or cells: Escherichia coli
T2 sequence (P28161 1-218): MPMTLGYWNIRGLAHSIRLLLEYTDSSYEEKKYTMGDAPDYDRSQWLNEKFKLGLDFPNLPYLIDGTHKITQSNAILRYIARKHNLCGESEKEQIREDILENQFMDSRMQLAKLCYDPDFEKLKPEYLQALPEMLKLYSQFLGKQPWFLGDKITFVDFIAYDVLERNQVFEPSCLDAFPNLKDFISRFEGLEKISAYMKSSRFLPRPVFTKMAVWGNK
Described as above. The conditions noted are these: 25° C., pH 6.5, 1 mM glutathione, 1 mM CDNB. The class given is biochemical. Here is the method:
as §1, §2, §3, §4

Data set [1] concerns CEM1.3 (human T-lymphoblastic leukaemia). Nature of the data set: SRB cell growth test. The class given is cell-based. As to conditions: CEM13, read-out: Activity trials on cell lines - IC50 (50% inhibition of cell growth), CEM1.3, 48 hours. As to the method: (§5) Four cancer cell lines were used for testing the anticancer activity of the derivatives of 7-nitro-2,1,3-benzoxadiazole: K562 (human myeloid leukaemia), HepG2 (human hepatic carcinoma), CEM1.3 (human T-lymphoblastic leukaemia) and GLC-4 (human small cell lung carcinoma).
(§6) The human cancer cell lines were maintained in RPMI 1640 (containing L-glutamine 2 mM and 0.1 g/l of penicillin-G/streptomycin sulphate) enriched with 5% foetal bovine serum (FBS), at 37° C., 5% CO2 and 98% humidity.
(§7) The cells were placed in 96-well plates at a density of 15,000 cells per well, in a culture medium volume of 100 μl. After 24 hours, each of the 7-nitro-2,1,3-benzoxadiazole derivatives to be assayed, at the required concentration, was added to the culture medium. At the same time, some control trials were arranged by adding to the wells the solvent in which the compound was dissolved (% v/v of DMSO in PBS). All measurements were carried out in quadruplicate.
(§8) The cells were incubated for 48 hours at 37° C., at 5% CO2.
(§9) In order to obtain a dose-response profile for each derivative of 7-nitro-2,1,3-benzoxadiazole under study, an evaluation process based on the method described by Shekan et al (J. Natl. Cancer. Inst. 82, (1990), 1107-1112) was used.
(§10) After incubation, the percentage cell growth was evaluated by an insitu cell fixation procedure, followed by an SRB test using a colouring procedure with sulphorodamine B capable of specifically binding to proteins. The coloured product was then solubilised and quantified spectrophotometrically in order to determine the growth of the cells treated with the compound under study with respect to the ones treated with the solvent only.

The test system of data set [2] is GLC-4 (human small cell lung carcinoma). Put plainly: SRB cell growth test. The class given is cell-based. The conditions noted are these: GLC4, read-out: Activity trials on cell lines - IC50 (50% inhibition of cell growth), GLC-4, 48 hours. Here is the method:
as §5, §6, §7, §8, §9, §10

Data set [3] deals with HepG2 (human hepatic carcinoma). Put plainly: SRB cell growth test. It counts as cell-based. As to conditions: HepG2, read-out: Activity trials on cell lines - IC50 (50% inhibition of cell growth), HepG2, 48 hours. As to the method: as §5, §6, §7, §8, §9, §10
Data set [4] deals with K562 (human myeloid leukaemia). Put plainly: SRB cell growth test. As to conditions: K562, read-out: Activity trials on cell lines - IC50 (50% inhibition of cell growth), K562, 48 hours. It counts as cell-based. As to the method: as §5, §6, §7, §8, §9, §10
The subject of another data set is caspase-3 in K562 cells. Put plainly: Caspase-3 activation (Ac-DEVD-AFC) in cell lysates. The conditions noted are these: K562, 10 μM, after 24 h. It counts as cell-based, human. As to the method: Pellets of cells at different times of incubation with 7-nitro-benzofurazan derivative No. 2 (10 μM and 2 μM with K562 and CEM1.3 respectively), were resuspended with lysis buffer (100 mM Hepes, pH 7.6, 0.1% Chaps, 1 mM EDTA, 1 mM Phenyl-methyl-sulphonyl-fluoride and 10 mM DTT) for 20 min on ice and cells were disrupted by 10-s sonication. Lysates, after centrifugation, were utilized to measure the caspase-3 activity. The substrate utilized was the model fluorescent peptide Ac-DEVD-AFC (Acetyl-Asp-GluVal-Asp-7-amino-4-trifluoromethyl coumarin) which was proteolyzed by caspase-3 resulting in a fluorescence emission at 505 nm (excitation at 400 nm). As control, lysates were incubated 30 min at 30° C. with the caspase inhibitor DEVD-CHO before evaluation of enzyme activity. Caspase activity was expressed as fluorescence change observed per minute per number of cells.

Another data set concerns CEM1.3 cells. Put plainly: Flow cytometric analysis of apoptosis (Annexin V-FITC / PI). The class given is cell-based, human. As to conditions: CEM1.3, 2 μM. Here is the method: (§11) Cells were washed in PBS, and stained with propidium iodide and with the impermeant dye Annexin V-FITC (Bender MedSystems, Vienna, Austria). The stained cells were analysed using a FACScan Flow Cytometer (Becton-Dickinson, CA). Data were recorded and statistically analysed by WinMDI version 2.8 software. Simultaneous staining of cells with Annexin V-FITC and PI allows the discrimination of intact cells, early apoptotic and late apoptotic or necrotic cells.
(A flow cytometer gives signals particle by particle.)

For the next data set, the system named is K562 cells. Described as above. The conditions noted are these: K562, 10 μM. It counts as cell-based, human. As to the method: as §11
For data set [5], the target named is T3, GST-JNK complex in K562 cells (Homo sapiens, UniProt P09211).
T3 construct: K562 cell lysates were immunoprecipitated with an anti-JNK antybody and used for Western blot analysis; endogenous in cells; host or cells: K562
Put plainly: Immunoprecipitation with anti-JNK antibody and Western blot. The conditions noted are these: K562 lysates, 10 μM; slightly increases only after 3 h. The class given is cell-based. Here is the method: For the immunoprecipitation analysis, cell pellets were resuspended in lysis buffer, and cells were disrupted by 10-s sonication. Lysates were then centrifuged at 14,000 g for 15 min at 4° C. Proteins were incubated in lysis buffer with anti-JNK antibody for 2 h at 4° C. Immunocomplexes were absorbed with protein A-Sepharose for 30 min at 4° C. After three washes with lysis buffer, immune pellets were boiled in SDS sample buffer. Proteins were loaded on 15% SDS-polyacrylamide gel and transferred to nitrocellulose. GST, JNK and phospho-JNK were detected by specific antibody.
To assess if cell treatment with derivative No. 2 affects the amount of GST-JNK complex, K562 cell lysates were immunoprecipitated with an anti-JNK antybody and used for Western blot analysis.
(In general: Immunoblotting shows a protein as a band on a membrane.)

For another data set, the target named is T4, GST P1-1 (Homo sapiens, UniProt P09211).
T4 construct: made in house; host or cells: Escherichia coli
Nature of the data set: Inhibition of GST activity (CDNB/GSH spectrophotometric assay). The class given is biochemical. As to conditions: for IC50: 25° C., pH 6.5, 1 mM glutathione, 1 mM CDNB. Here is the method:
as §2, §3, §4

For data set [6], the system named is K562, HepG2, CEM1.3 and GLC-4 cancer cell lines. Put plainly: Cytotoxicity, viability and cell penetration on all the tested cancer cell lines. It counts as cell-based, human. Here is the method: as §5, §6
The cells were placed in 96-well plates at a density of 15,000 cells per well, in a culture medium volume of 100 μl. After 24 hours, each of the 7-nitro-2,1,3-benzoxadiazole derivatives to be assayed, at the required concentration, was added to the culture medium. At the same time, some control trials were arranged by adding to the wells the solvent in which the compound was dissolved (% v/v of DMSO in PBS). All measurements were carried out in quadruplicate. […]
as §10

Data set [7] concerns CEMVBL100, leukaemia line resistant to vinblastine (hyperexpressing P-glycoprotein). Nature of the data set: Cytotoxicity of vinblastine on resistant cells with and without the derivative (SRB test). The class given is cell-based. The conditions noted are these: CEM/VBL100, 48 h. Here is the method:
In cancer cells the resistance to many anticancer drugs is often associated with a high expression of P-glycoprotein, a membrane protein belonging to the overall family of ABC transporters (ATP-binding cassette).
The cells were placed in 96-well strips at a density of 15,000 cells per well, in a volume of culture medium of 100 μl. After 24 hours, a suitable concentration of between 25 nM and 1000 nM of vinblastine was added to the culture medium. […] At the same time, some control trials were arranged by adding to the wells the solvent in which the compound was dissolved (% v/v of DMSO in PBS). All measurements were carried out in quadruplicate. After 48 hours of incubation, a dosage-response profile was obtained by using the SRB test (J. Natl. Cancer. Inst. 82, (1990), 1107-1112, loc. cit.).
On the technique in general: Sulforhodamine B stains cellular protein and so reports cell mass.

T4 sequence (P09211 2-210 limits assumed): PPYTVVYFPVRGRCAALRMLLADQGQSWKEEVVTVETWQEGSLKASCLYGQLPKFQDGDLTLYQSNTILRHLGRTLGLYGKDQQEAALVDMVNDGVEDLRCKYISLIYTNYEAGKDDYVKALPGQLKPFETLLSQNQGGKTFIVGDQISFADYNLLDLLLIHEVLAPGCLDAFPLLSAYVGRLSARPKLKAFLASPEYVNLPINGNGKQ
T3 sequence (P09211 2-210 limits assumed, one chain of several): as the sequence (P09211 2-210 limits assumed) above

The term IC50 denotes the concentration needed to halve the response being measured. Regarding `O=[N+]([O-])c1ccc(SCCCCCCO)c2nonc12` [(2), 6-(7-nitro-2,1,3-benzoxadiazol-4-ylthio)hexanol], the IC50 at GST A1-1 was 25 µM; against GST M2-2, 0.01 µM; in data set [1], 0.1 µM; in data set [2] it was 1.4 µM; in [3], 2.9 µM; in [4] it was 0.8 µM. Also, in the data set on caspase-3 in K562 cells, the caspase-3 activity entry is “strong increase of caspase-3”. The apoptosis in the data set on CEM1.3 cells (12 h treatment) worked out at 34%; in the data set on CEM1.3 cells (after 24 h), 47%; in the data set with K562 cells (12 h treatment), 30%; in the data set with K562 cells (after 24 h) it was 41%. Moreover, the “amount of GSTP1-1 that co-precipitates with JNK” value in [5] was “rapidly decreased”.

As to `O=[N+]([O-])c1ccc(NCCCCCCO)c2nonc12` [(6), 6-(7-nitro-2,1,3-benzoxadiazol-4-ylamino)hexanol], the “inhibition activity with regard to the enzymatic isoform GSTP1-1 (in words)” value on GST P1-1 is reported as “no inhibition activity”. Also, the IC50 on GST A1-1 was over 100 µM; against GST M2-2, ~2 µM and 1.8 µM; in [1] it was over 50 µM; in data set [2], over 50 µM; in data set [3], over 50 µM; in data set [4] it was over 50 µM. In addition, the “viability of all the tested cancer cell lines” value in [6] (48 hours of incubation with 50 μM) is listed as “still viable”. For the same compound, the “penetration into the cells (intracellular fluorescence)” value in data set [6] (after 6 hours of incubation, various concentrations) was “easily penetrate the cells”.

Consider `O=[N+]([O-])c1ccc(Sc2ncc[nH]2)c2nonc12` [(3), 2-(7-nitro-2,1,3-benzoxadiazol-4-ylthio)imidazole], for which the IC50 against GST P1-1 was 6.3 µM; on GST A1-1, 11 µM; against GST M2-2, 0.01 µM; in [1], 3.9 µM; in data set [2], 10 µM; in data set [3], 16 µM. The IC50 in data set [4] came out at 8.8 µM.

For `CC[C@]1(O)C[C@@H]2CN(CCc3c([nH]c4ccccc34)[C@@](C(=O)OC)(c3cc4c(cc3OC)N(C)[C@H]3[C@@](O)(C(=O)OC)[C@H](OC(C)=O)[C@]5(CC)C=CCN6CC[C@]43[C@@H]65)C2)C1` [vinblastine], the IC50 in data set [7] (CEM VBL100, 7-nitro-2,1,3-benzoxadiazole derivative absent) stood at 0.34 µM; in [7] (CEM VBL100, with 0.5 μM 6-(7-nitro-2,1,3-benzoxadiazol-4-ylthio)hexanol) it was 0.05 µM.

For the compound `O=[N+]([O-])c1ccc(SCCCCO)c2nonc12` [(1), 4-(7-nitro-2,1,3-benzoxadiazol-4-ylthio)butanol], the IC50 against GST P1-1 stood at 2 µM; against GST A1-1 it was 56 µM; on GST M2-2 it was 0.03 µM; in data set [1], 0.2 µM; in [2], 3.2 µM; in data set [3], 3.2 µM. Also, in [4], the IC50 came to 2.2 µM.

Consider `O=C(O)CCSc1ccc([N+](=O)[O-])c2nonc12` [(5), 3-(7-nitro-2,1,3-benzoxadiazol-4-ylthio)propionic acid], for which the IC50 was 5.74 µM on GST P1-1; 66 µM against GST A1-1; 0.31 µM at GST M2-2; 6.5 µM in data set [1]; 16.5 µM in [2]; 25 µM in [3]. The IC50 in data set [4] turned out to be 38 µM.

Turning to `O=[N+]([O-])c1ccc(Sc2ccc(O)cc2)c2nonc12` [(4), 4-(7-nitro-2,1,3-benzoxadiazol-4-ylthio)phenol], the IC50 turned out to be 0.7 µM against GST P1-1; 6.5 µM against GST A1-1; 0.03 µM at GST M2-2; 2.4 µM in data set [1]; 7.5 µM in data set [2]; 16.3 µM in data set [3]. Further, the IC50 in [4] was 6.4 µM.
